In the supplement of paper PMC12076712:

Assays:
Assay in all cases: pIC50, kinobeads binding competition
Settings in all cases: cell material: Jurkat lysate
UniProt Q5VT25 = target: UniProt Q5VT25
CLK1 = CLK1 (UniProt P49759)
UniProt Q05655 = target: UniProt Q05655
MARK4 = target: T1, MARK4 (UniProt Q96L34)
T1 sequence (whole entry): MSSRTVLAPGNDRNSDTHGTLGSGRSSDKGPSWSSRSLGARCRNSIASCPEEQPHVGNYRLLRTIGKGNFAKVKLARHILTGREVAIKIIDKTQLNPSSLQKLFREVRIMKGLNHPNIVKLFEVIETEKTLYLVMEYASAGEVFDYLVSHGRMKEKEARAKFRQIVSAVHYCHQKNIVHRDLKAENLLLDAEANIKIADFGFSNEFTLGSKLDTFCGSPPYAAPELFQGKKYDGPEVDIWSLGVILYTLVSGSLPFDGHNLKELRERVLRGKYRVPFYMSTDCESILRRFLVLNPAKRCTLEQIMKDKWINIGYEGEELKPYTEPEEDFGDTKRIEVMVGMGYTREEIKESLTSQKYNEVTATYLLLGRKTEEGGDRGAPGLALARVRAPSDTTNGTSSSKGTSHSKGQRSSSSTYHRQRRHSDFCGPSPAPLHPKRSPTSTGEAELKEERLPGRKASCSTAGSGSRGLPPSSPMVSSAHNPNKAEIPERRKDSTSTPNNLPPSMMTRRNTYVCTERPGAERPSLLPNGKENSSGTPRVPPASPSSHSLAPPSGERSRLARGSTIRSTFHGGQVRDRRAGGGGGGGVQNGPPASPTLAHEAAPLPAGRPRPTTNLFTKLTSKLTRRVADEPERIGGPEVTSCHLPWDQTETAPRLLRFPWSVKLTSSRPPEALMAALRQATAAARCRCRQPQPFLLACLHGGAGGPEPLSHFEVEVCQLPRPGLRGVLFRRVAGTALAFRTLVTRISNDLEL

MAP4K3 = target: T2, MAP4K3 (UniProt Q8IVH8)
T2 sequence (whole entry): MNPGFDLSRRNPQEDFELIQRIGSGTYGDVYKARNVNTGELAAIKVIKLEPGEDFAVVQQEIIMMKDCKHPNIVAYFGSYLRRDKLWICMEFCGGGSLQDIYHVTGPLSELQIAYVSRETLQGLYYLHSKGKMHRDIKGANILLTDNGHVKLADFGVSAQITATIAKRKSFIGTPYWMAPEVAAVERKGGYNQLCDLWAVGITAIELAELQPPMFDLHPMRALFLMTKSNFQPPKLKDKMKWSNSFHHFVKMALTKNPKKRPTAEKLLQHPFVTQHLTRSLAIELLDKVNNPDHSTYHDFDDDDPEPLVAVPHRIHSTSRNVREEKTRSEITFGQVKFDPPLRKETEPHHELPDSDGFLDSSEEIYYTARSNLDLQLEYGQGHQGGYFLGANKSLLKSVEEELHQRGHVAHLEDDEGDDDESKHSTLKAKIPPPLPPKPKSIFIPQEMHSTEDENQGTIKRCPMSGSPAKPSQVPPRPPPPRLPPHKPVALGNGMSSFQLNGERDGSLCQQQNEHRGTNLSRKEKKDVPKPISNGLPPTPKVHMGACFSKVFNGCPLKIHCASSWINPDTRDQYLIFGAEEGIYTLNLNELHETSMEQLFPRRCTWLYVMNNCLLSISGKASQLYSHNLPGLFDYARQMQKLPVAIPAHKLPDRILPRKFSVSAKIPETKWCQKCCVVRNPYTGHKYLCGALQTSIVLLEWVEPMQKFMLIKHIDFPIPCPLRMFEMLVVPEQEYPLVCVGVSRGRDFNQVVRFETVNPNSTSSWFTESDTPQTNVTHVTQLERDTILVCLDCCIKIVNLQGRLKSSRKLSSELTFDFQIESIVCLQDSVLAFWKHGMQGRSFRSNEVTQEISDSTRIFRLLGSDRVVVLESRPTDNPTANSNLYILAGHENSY

PAK2 = PAK2 (UniProt Q13177)
UniProt Q9BUB5 = target: UniProt Q9BUB5
UniProt P07947 = target: UniProt P07947
UniProt P68400 = target: UniProt P68400
UniProt P80192 = target: UniProt P80192
DYRK2 = target: T3, DYRK2 (UniProt Q92630)
T3 sequence (whole entry): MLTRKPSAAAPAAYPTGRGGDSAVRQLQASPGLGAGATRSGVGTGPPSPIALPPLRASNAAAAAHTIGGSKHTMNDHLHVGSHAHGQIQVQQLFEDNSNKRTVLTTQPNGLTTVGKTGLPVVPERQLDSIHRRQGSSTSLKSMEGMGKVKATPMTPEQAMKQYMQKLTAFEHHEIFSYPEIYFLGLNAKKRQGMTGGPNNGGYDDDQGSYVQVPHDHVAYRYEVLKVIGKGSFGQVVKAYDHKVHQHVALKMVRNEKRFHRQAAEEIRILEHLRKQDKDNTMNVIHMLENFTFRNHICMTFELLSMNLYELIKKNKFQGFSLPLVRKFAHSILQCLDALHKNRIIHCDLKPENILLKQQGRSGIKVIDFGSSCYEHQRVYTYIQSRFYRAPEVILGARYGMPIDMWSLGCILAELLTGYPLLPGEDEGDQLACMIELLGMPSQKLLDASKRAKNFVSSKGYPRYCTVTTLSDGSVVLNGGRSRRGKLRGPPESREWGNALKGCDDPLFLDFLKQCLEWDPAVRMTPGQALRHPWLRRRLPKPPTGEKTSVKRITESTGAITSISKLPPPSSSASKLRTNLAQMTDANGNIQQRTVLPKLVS

UniProt Q8N4C8 = target: UniProt Q8N4C8
MAST1 = MAST1 (UniProt Q9Y2H9)

Measured: pIC50

CLK1, sequence (P49759 whole entry, looked up): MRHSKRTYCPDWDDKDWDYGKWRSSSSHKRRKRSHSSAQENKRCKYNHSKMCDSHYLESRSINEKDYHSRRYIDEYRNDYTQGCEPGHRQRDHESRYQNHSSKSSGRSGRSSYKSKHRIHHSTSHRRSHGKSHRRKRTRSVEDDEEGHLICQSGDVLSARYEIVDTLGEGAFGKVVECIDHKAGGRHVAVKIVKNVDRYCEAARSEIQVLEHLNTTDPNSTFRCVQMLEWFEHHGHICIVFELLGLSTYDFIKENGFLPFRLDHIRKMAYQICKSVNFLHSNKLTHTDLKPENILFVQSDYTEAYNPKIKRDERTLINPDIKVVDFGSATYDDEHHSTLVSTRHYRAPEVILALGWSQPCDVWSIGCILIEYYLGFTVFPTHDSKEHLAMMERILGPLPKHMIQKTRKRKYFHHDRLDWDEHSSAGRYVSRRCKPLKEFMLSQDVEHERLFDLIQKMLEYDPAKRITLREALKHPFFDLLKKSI
UniProt P07947, sequence (P07947 whole entry, looked up): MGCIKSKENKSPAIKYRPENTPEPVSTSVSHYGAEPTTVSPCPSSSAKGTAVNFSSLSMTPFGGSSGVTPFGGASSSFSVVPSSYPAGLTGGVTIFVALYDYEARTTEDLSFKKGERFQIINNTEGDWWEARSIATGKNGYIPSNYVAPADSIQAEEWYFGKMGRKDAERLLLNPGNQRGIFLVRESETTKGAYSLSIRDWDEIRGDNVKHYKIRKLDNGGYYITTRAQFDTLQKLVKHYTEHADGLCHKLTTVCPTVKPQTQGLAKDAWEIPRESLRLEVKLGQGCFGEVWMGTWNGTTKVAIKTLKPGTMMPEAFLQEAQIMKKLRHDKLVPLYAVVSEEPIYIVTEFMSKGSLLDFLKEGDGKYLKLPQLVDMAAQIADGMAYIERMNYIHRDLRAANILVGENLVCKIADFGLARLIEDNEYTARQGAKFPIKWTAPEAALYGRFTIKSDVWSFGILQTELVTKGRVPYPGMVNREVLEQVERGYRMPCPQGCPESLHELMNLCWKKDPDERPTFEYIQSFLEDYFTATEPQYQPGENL
UniProt P68400, sequence (P68400 whole entry, looked up): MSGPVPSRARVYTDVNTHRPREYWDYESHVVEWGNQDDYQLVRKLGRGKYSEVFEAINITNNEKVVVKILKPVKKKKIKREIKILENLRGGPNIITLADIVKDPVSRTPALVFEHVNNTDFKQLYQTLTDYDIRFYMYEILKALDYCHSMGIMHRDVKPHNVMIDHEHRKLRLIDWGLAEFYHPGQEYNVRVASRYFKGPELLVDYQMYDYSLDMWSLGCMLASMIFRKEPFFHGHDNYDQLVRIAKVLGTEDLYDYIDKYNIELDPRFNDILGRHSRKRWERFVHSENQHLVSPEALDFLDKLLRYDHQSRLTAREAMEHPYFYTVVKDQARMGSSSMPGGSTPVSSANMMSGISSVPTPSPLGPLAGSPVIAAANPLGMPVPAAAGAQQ
PAK2, sequence (Q13177 whole entry): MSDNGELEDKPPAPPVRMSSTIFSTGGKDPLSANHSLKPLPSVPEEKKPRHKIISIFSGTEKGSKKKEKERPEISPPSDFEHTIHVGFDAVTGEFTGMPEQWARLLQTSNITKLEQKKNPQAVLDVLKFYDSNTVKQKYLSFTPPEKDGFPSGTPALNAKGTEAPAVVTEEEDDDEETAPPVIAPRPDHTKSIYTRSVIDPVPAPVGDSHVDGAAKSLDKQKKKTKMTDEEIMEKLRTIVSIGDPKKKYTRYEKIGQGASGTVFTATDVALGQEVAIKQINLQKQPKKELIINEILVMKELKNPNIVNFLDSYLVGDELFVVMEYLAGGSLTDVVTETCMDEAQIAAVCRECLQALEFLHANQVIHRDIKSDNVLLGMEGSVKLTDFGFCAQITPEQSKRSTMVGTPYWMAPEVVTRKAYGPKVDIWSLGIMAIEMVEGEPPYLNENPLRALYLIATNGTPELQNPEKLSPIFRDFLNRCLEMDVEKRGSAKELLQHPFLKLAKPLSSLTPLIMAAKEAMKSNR
MAST1, sequence (Q9Y2H9 whole entry, looked up): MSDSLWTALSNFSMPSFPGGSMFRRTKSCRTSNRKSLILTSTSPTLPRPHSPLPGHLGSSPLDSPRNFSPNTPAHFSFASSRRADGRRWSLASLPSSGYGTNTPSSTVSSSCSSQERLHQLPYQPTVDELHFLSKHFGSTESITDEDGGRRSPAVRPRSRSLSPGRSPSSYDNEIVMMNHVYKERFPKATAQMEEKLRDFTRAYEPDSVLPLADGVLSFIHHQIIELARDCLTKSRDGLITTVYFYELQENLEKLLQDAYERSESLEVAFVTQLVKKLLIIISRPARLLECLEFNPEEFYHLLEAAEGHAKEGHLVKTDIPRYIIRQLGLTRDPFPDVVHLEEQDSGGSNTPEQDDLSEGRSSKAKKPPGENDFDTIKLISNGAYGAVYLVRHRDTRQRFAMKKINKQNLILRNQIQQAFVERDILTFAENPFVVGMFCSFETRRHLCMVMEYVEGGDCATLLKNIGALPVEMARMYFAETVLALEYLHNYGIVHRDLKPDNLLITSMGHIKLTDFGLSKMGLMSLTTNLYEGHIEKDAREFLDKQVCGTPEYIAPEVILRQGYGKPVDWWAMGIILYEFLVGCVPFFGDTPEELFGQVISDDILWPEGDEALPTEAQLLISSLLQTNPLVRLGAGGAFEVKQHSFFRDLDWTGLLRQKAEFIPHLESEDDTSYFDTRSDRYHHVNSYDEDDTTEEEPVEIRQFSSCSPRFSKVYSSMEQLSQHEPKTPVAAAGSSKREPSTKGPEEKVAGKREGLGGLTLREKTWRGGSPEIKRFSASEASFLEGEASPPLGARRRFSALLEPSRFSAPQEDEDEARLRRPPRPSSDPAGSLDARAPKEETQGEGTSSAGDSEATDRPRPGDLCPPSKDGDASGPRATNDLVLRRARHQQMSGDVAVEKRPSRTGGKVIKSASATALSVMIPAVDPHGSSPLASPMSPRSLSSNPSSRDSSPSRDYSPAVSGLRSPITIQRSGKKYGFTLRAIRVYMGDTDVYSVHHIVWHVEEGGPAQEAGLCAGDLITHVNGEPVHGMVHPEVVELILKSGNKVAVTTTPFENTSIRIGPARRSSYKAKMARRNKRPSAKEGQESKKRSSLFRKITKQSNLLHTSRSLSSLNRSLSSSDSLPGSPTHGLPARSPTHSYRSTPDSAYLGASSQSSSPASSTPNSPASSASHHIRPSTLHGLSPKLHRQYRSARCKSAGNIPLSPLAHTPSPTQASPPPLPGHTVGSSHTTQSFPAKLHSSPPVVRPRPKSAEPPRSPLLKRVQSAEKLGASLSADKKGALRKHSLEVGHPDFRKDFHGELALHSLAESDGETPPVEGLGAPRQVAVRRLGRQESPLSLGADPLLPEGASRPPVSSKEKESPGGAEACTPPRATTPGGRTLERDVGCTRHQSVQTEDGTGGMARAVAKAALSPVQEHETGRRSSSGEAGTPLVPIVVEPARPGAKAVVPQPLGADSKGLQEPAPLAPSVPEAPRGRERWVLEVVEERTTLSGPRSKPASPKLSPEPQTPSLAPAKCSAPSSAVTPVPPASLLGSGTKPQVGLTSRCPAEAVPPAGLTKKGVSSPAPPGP
UniProt P80192, sequence (P80192 whole entry, looked up): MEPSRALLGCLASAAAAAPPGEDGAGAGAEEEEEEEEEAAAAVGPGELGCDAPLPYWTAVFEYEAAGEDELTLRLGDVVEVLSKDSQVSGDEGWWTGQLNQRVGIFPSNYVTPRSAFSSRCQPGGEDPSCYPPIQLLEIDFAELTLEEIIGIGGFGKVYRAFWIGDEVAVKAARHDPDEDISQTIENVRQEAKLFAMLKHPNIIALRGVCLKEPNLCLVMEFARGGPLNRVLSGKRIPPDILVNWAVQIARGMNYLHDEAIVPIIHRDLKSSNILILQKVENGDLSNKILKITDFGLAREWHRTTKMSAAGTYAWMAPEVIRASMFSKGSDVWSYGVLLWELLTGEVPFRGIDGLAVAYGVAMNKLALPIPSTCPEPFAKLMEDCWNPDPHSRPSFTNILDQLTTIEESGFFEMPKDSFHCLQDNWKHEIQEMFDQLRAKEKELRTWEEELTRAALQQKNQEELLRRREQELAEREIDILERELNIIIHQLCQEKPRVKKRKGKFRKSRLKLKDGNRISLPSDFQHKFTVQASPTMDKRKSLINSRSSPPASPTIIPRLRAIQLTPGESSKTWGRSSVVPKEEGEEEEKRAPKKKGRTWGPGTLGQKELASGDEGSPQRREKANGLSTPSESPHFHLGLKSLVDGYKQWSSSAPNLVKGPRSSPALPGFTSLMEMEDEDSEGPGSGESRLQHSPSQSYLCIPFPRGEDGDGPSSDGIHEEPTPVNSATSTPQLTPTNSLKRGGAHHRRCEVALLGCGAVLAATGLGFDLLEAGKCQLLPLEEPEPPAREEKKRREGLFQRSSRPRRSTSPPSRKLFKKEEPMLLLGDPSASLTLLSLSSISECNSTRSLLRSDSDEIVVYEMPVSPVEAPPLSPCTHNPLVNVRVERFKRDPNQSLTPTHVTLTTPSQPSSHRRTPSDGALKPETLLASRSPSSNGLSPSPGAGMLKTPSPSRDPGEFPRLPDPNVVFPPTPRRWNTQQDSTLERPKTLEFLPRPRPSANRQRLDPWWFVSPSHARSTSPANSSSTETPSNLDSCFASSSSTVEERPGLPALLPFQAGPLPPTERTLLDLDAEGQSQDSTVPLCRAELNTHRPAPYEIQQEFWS

CCc1cnn2c(NCc3ccc[n+]([O-])c3)cc(N3CCCC[C@H]3CCO)nc12 [dinaciclib]
5.13: CLK1
< 4.52: all other assays above
